Source: patent US4735959A, “Carboxylic acid amides and pharmaceutical compositions containing them” (Dr. Karl Thomae GmbH, priority 1981, dated 1988)
Where two headings read alike, the source gives them in different places.

Legend:
Type in all cases: in vivo
blood-sugar = test: Blood-sugar lowering activity in starved female rats after oral administration; conditions: for change in vivo at 1 mg/kg / change in vivo at 5 mg/kg / change in vivo at 10 mg/kg: Rattus norvegicus, po, read-out: Blood-sugar lowering activity, percent as compared with the controls; for change in vivo at 10 mg/kg: 10 mg/kg orally (footnote *)
Method: The blood-sugar lowering activity of the test compounds was determined in home-bred female rats with weights of from 180 to 220 grams. Twenty-four hours before starting the test the animals were starved. Before the test the compounds were suspended in 1.5% methyl cellulose and administered to the animals by means of an esophageal tube.
Blood was taken from the retroorbital plexus vein before administration of the test compounds as well as each of 1, 2, 3, and 4 hours after administration. Fifty microliters of each sample were deproteinized with 0.5 ml of 0.33N perchloric acid and centrifuged. The glucose content was determined in the supernatant according to the Hexokinase method by means of an analysis photometer. The statistical evalulation was performed with the t-test according to Student with p=0.05.

[1] = Acute toxicity in female and male mice after oral administration of a single dose; conditions: mouse, in vivo, observation time 14 days, read-out: Peroral Toxicity
Method: (§1) The acute toxicity was determined in home-bred female and male mice having body weights of from 20 to 26 gm after oral administration (suspension in a 1% methyl cellulose solution) of a single dose. Observation time: 14 days.

mice = test: as above; conditions: observation time 14 days
Method: as §1

[2] = 1 mg/kg orally, 3 hours, n.s. = not statistically significant
[3] = 1 mg/kg orally, 1 hour, n.s. = not statistically significant
[4] = 1 mg/kg orally, 2 hours, n.s. = not statistically significant
[5] = 1 mg/kg orally, 4 hours, n.s. = not statistically significant
[6] = 5 mg/kg orally, 1 hour, n.s. = not statistically significant
[7] = 5 mg/kg orally, 2 hours, n.s. = not statistically significant
[8] = 5 mg/kg orally, 3 hours, n.s. = not statistically significant
[9] = 5 mg/kg orally, 4 hours, n.s. = not statistically significant

CC(NC(=O)Cc1ccc(C(=O)O)cc1)c1ccccc1N1CCCCC1 (racemic) [AT, (±)-4-[(1-(2-Piperidino-phenyl)-1-ethyl)-aminocarbonylmethyl]-benzoicacid]
Blood-sugar lowering activity, percent as compared with the controls (blood-sugar; [2]): n.s.
change in vivo at 1 mg/kg (blood-sugar; [3]): -34%
change in vivo at 1 mg/kg (blood-sugar; [4]): -26%
change in vivo at 1 mg/kg (blood-sugar; [5]): -11%
change in vivo at 5 mg/kg (blood-sugar; [6]): -45%
change in vivo at 5 mg/kg (blood-sugar; [7]): -45%
change in vivo at 5 mg/kg (blood-sugar; [8]): -36%
change in vivo at 5 mg/kg (blood-sugar; [9]): -32%
LD50 at 336 h [1]: > 2000 mg/kg
animals died (mice): 1 out of 10

O=C(Cc1ccc(C(=O)O)cc1)NC(c1ccccc1)c1ccccc1N1CCCCC1 (racemic) [AV, (±)-4-[(2-Piperidino-benzhydryl)-aminocarbonylmethyl]-benzoic acid]
change in vivo at 1 mg/kg (blood-sugar; [3]): -41%
change in vivo at 1 mg/kg (blood-sugar; [4]): -38%
change in vivo at 1 mg/kg (blood-sugar; [2]): -26%
change in vivo at 1 mg/kg (blood-sugar; [5]): -24%
change in vivo at 5 mg/kg (blood-sugar; [6]): -44%
change in vivo at 5 mg/kg (blood-sugar; [7]): -38%
change in vivo at 5 mg/kg (blood-sugar; [8]): -41%
change in vivo at 5 mg/kg (blood-sugar; [9]): -37%
LD50 at 336 h [1]: > 2000 mg/kg
animals died (mice): 0 out of 10

CCCC(NC(=O)Cc1ccc(C(=O)O)cc1)c1ccccc1N1CCCCC1 (racemic) [J, (±)-4-[(1-(2-Piperidino-phenyl)-1-butyl)-aminocarbonylmethyl]-benzoic acid]
change in vivo at 1 mg/kg (blood-sugar; [3]): -38%
change in vivo at 1 mg/kg (blood-sugar; [4]): -32%
change in vivo at 1 mg/kg (blood-sugar; [2]): -34%
change in vivo at 1 mg/kg (blood-sugar; [5]): -29%
change in vivo at 5 mg/kg (blood-sugar; [6]): -44%
change in vivo at 5 mg/kg (blood-sugar; [7]): -37%
change in vivo at 5 mg/kg (blood-sugar; [8]): -42%
change in vivo at 5 mg/kg (blood-sugar; [9]): -42%
LD50 at 336 h [1]: > 2000 mg/kg
animals died (mice): 0 out of 10

CC/C=C(\NC(=O)Cc1ccc(C(=O)O)cc1)c1ccccc1N1CCCCC1 [A, (Z)-4-[(1-(2-Piperidino-phenyl)-1-buten-1yl)-aminocarbonylmethyl]-benzoicacid]
change in vivo at 1 mg/kg (blood-sugar; [3]): -43%
change in vivo at 1 mg/kg (blood-sugar; [4]): -40%
change in vivo at 1 mg/kg (blood-sugar; [2]): -33%
change in vivo at 1 mg/kg (blood-sugar; [5]): -35%
LD50 at 336 h [1]: > 1000 mg/kg
animals died (mice): 0 out of 6

Cc1ccc(C(NC(=O)Cc2ccc(C(=O)O)cc2)c2ccccc2N2CCCCC2)cc1 (stereo not drawn) [AA, 4-[(α-(4-Methyl-phenyl)-2-piperidino-benzyl)-aminocarbonylmethyl]-benzoic acid]
Blood-sugar lowering activity, percent as compared with the controls (blood-sugar; [5]): n.s.
Blood-sugar lowering activity, percent as compared with the controls (blood-sugar; [9]): n.s.
change in vivo at 1 mg/kg (blood-sugar; [3]): -15%
change in vivo at 1 mg/kg (blood-sugar; [4]): -15%
change in vivo at 1 mg/kg (blood-sugar; [2]): -13%
change in vivo at 5 mg/kg (blood-sugar; [6]): -30%
change in vivo at 5 mg/kg (blood-sugar; [7]): -33%
change in vivo at 5 mg/kg (blood-sugar; [8]): -14%
LD50 at 336 h [1]: > 1000 mg/kg
animals died (mice): 0 out of 10

Cc1cccc(C(NC(=O)Cc2ccc(C(=O)O)cc2)c2ccccc2N2CCCCC2)c1 (stereo not drawn) [AB, 4-[(α-(3-Methyl-phenyl)-2-piperidino-benzyl)-aminocarbonylmethyl]-benzoic acid]
Blood-sugar lowering activity, percent as compared with the controls (blood-sugar; [2]): n.s.
Blood-sugar lowering activity, percent as compared with the controls (blood-sugar; [5]): n.s.
change in vivo at 1 mg/kg (blood-sugar; [3]): -26%
change in vivo at 1 mg/kg (blood-sugar; [4]): -15%
change in vivo at 5 mg/kg (blood-sugar; [6]): -43%
change in vivo at 5 mg/kg (blood-sugar; [7]): -38%
change in vivo at 5 mg/kg (blood-sugar; [8]): -36%
change in vivo at 5 mg/kg (blood-sugar; [9]): -27%
LD50 at 336 h [1]: > 1000 mg/kg
animals died (mice): 0 out of 10

O=C(Cc1ccc(C(=O)O)cc1)NC(c1ccc(F)cc1)c1ccccc1N1CCCCC1 (stereo not drawn) [AC, 4-[(α-(4-Fluoro-phenyl)-2-piperidino-benzyl)-aminocarbonylmethyl]-benzoic acid]
change in vivo at 5 mg/kg (blood-sugar; [6]): -36%
change in vivo at 5 mg/kg (blood-sugar; [7]): -37%
change in vivo at 5 mg/kg (blood-sugar; [8]): -36%
change in vivo at 5 mg/kg (blood-sugar; [9]): -33%
LD50 at 336 h [1]: > 1000 mg/kg
animals died (mice): 0 out of 10

O=C(Cc1ccc(C(=O)O)cc1)NC(c1ccccc1F)c1ccccc1N1CCCCC1 (stereo not drawn) [AD, 4-[(α-(2-Fluoro-phenyl)-2-piperidino-benzyl)-aminocarbonylmethyl]-benzoic acid]
change in vivo at 1 mg/kg (blood-sugar; [3]): -16%
change in vivo at 1 mg/kg (blood-sugar; [4]): -20%
change in vivo at 1 mg/kg (blood-sugar; [2]): -17%
change in vivo at 1 mg/kg (blood-sugar; [5]): -14%
change in vivo at 5 mg/kg (blood-sugar; [6]): -28%
change in vivo at 5 mg/kg (blood-sugar; [7]): -32%
change in vivo at 5 mg/kg (blood-sugar; [8]): -27%
change in vivo at 5 mg/kg (blood-sugar; [9]): -28%
LD50 at 336 h [1]: > 1000 mg/kg
animals died (mice): 0 out of 10

O=C(Cc1ccc(C(=O)O)cc1)NC(c1ccc(Cl)cc1)c1ccccc1N1CCCCC1 (stereo not drawn) [AE, 4-[(α-(4-Chloro-phenyl)-2-piperidino-benzyl)-aminocarbonylmethyl]-benzoic acid]
Blood-sugar lowering activity, percent as compared with the controls (blood-sugar; [5]): n.s.
change in vivo at 1 mg/kg (blood-sugar; [3]): -21%
change in vivo at 1 mg/kg (blood-sugar; [4]): -20%
change in vivo at 1 mg/kg (blood-sugar; [2]): -22%
change in vivo at 5 mg/kg (blood-sugar; [6]): -30%
change in vivo at 5 mg/kg (blood-sugar; [7]): -28%
change in vivo at 5 mg/kg (blood-sugar; [8]): -39%
change in vivo at 5 mg/kg (blood-sugar; [9]): -36%
LD50 at 336 h [1]: > 1000 mg/kg
animals died (mice): 0 out of 10

O=C(Cc1ccc(C(=O)O)cc1)NC(c1ccccn1)c1ccccc1N1CCCCC1 (stereo not drawn) [AG, 4-[(2-Piperidino-α-(2-pyridyl)-benzyl)-aminocarbonylmethyl]-benzoic acid]
Blood-sugar lowering activity, percent as compared with the controls (blood-sugar; [4]): n.s.
Blood-sugar lowering activity, percent as compared with the controls (blood-sugar; [2]): n.s.
Blood-sugar lowering activity, percent as compared with the controls (blood-sugar; [5]): n.s.
change in vivo at 1 mg/kg (blood-sugar; [3]): -18%
change in vivo at 10 mg/kg (blood-sugar; 1 hour): -49%
change in vivo at 10 mg/kg (blood-sugar; 2 hours): -50%
change in vivo at 10 mg/kg (blood-sugar; 3 hours, n.s. = not statistically significant): -36%
change in vivo at 10 mg/kg (blood-sugar; 4 hours, n.s. = not statistically significant): -31%
LD50 at 336 h [1]: > 1000 mg/kg
animals died (mice): 0 out of 10

CC/C=C(/NC(=O)Cc1ccc(C(=O)O)cc1)c1ccccc1N1CCCCC1 [C, (E)-4-[(1-(2-Piperidino-phenyl)-1-buten-1-yl)-aminocarbonylmethyl]-benzoic acid]
change in vivo at 1 mg/kg (blood-sugar; [3]): -43%
change in vivo at 1 mg/kg (blood-sugar; [4]): -43%
change in vivo at 1 mg/kg (blood-sugar; [2]): -37%
change in vivo at 1 mg/kg (blood-sugar; [5]): -38%
LD50 at 336 h [1]: > 2000 mg/kg
animals died (mice): 0 out of 6

CC(C)=C(NC(=O)Cc1ccc(C(=O)O)cc1)c1ccccc1N1CCCCC1 [D, 4-[(2-Methyl-1-(2-piperidino-phenyl)-1-propen-1-yl)-aminocarbonylmethyl]-benzoic acid]
change in vivo at 1 mg/kg (blood-sugar; [3]): -36%
change in vivo at 1 mg/kg (blood-sugar; [4]): -32%
change in vivo at 1 mg/kg (blood-sugar; [2]): -27%
change in vivo at 1 mg/kg (blood-sugar; [5]): -25%
LD50 at 336 h [1]: > 500 mg/kg
animals died (mice): 0 out of 6

Cc1cccc(C(C)NC(=O)Cc2ccc(C(=O)O)cc2)c1N1CCCCC1 (stereo not drawn) [Z, 4-[(1-(3-Methyl-2-piperidino-phenyl)-1-ethyl)-aminocarbonylmethyl]-benzoic acid]
change in vivo at 5 mg/kg (blood-sugar; [6]): -22%
change in vivo at 5 mg/kg (blood-sugar; [7]): -33%
change in vivo at 5 mg/kg (blood-sugar; [8]): -28%
change in vivo at 5 mg/kg (blood-sugar; [9]): -26%
